# Measurements as given in ChEMBL document CHEMBL3885861, “Open TG-GATES”.
# Organism: Rattus norvegicus
# Assay: Open TG-GATES - Regimen: Daily Repeat
# Format: toxicity, organism-based, Sprague-Dawley
# Parameters: regimen Daily Repeat, gender Male, age 6 weeks
# Conditions: in vivo, po, route gavage; for APTT / Bas / Eos / Fbg / Ht / MCH / MCHC / MCV / Mono / Neu / PT / RBC / Ret: tissue Blood; for KIDNEY_L / KIDNEY_R / KIDNEY_TOTAL: tissue Kidney; for ALP / ALT / AST / BUN / CRE / Ca / Cl / DBIL / GLC / IP / K / LDH / Na / PL / RALB / TBIL / TC / TG / TP / gamma-GTP: tissue Plasma
# [1] = 0 mg/kg, 72 h, dose level Control, time 3 day
# [2] = 0 mg/kg, […], dose level Control, time 7 day
# [3] = 0 mg/kg, […], dose level Control, time 14 day
# [4] = 0 mg/kg, […], dose level Control, time 28 day
# [5] = 60 mg/kg, 72 h, dose level Low, time 3 day
# [6] = 60 mg/kg, […], dose level Low, time 7 day
# [7] = 60 mg/kg, […], dose level Low, time 14 day
# [8] = 60 mg/kg, […], dose level Low, time 28 day
compound,measurement,setting,value
CC(=O)Nc1nnc(S(N)(=O)=O)s1 [ACETAZOLAMIDE],TERMINAL_BW,[1],229 g
same,APTT,[1],21.2 s
same,Bas,[1],0%
same,Eos,[1],1%
same,Fbg,[1],302.2 mg/dL
same,Ht,[1],39.4%
same,MCH,[1],21.3 pg
same,MCHC,[1],34%
same,MCV,[1],62.8 fL
same,Mono,[1],3%
same,Neu,[1],16%
same,PT,[1],17 s
same,RBC,[1],628.2 x10_4/ul
same,Ret,[1],6.9%
same,KIDNEY_L,[1],1 g
same,KIDNEY_R,[1],1 g
same,KIDNEY_TOTAL,[1],2 g
same,ALP,[1],1759.2 IU/L
same,ALT,[1],45.6 IU/L
same,AST,[1],81.2 IU/L
same,BUN,[1],17.8 mg/dL
same,CRE,[1],0.1 mg/dL
same,Ca,[1],10.8 mg/dL
same,Cl,[1],106.6 meq/L
same,DBIL,[1],0 mg/dL
same,GLC,[1],193.6 mg/dL
same,IP,[1],7.5 mg/dL
same,K,[1],4.3 meq/L
same,LDH,[1],208.8 IU/L
same,Na,[1],142 meq/L
same,PL,[1],135 mg/dL
same,RALB,[1],3.1 g/dL
same,TBIL,[1],0.008 mg/dL
same,TC,[1],71.2 mg/dL
same,TG,[1],86.2 mg/dL
same,TP,[1],5.5 g/dL
same,gamma-GTP,[1],1.8 IU/L
same,TERMINAL_BW,[2],260.7 g
same,TERMINAL_BW,[3],306.6 g
same,TERMINAL_BW,[4],366.7 g
same,APTT,[2],21.8 s
same,Bas,[2],0%
same,Eos,[2],0.8%
same,Ht,[2],39.7%
same,MCH,[2],21.9 pg
same,MCHC,[2],35.8%
same,MCV,[2],61.1 fL
same,Mono,[2],2.4%
same,Neu,[2],11.8%
same,PT,[2],16.1 s
same,RBC,[2],650.4 x10_4/ul
same,Ret,[2],5.7%
same,APTT,[3],23.3 s
same,Bas,[3],0%
same,Eos,[3],0.8%
same,Fbg,[3],297.2 mg/dL
same,Ht,[3],40%
same,MCH,[3],20.5 pg
same,MCHC,[3],35.3%
same,MCV,[3],58.2 fL
same,Mono,[3],2.2%
same,Neu,[3],14%
same,PT,[3],16.5 s
same,RBC,[3],688.2 x10_4/ul
same,Ret,[3],5.1%
same,APTT,[4],25.9 s
same,Bas,[4],0%
same,Eos,[4],0.6%
same,Fbg,[4],316 mg/dL
same,Ht,[4],44%
same,MCH,[4],19 pg
same,MCHC,[4],34.3%
same,MCV,[4],55.6 fL
same,Mono,[4],2%
same,Neu,[4],12.4%
same,RBC,[4],791.4 x10_4/ul
same,Ret,[4],2.8%
same,KIDNEY_L,[2],1 g
same,KIDNEY_R,[2],1.1 g
same,KIDNEY_TOTAL,[2],2.1 g
same,KIDNEY_L,[3],1.2 g
same,KIDNEY_R,[3],1.2 g
same,KIDNEY_TOTAL,[3],2.4 g
same,KIDNEY_L,[4],1.3 g
same,KIDNEY_R,[4],1.3 g
same,KIDNEY_TOTAL,[4],2.6 g
same,ALP,[2],1905.2 IU/L
same,ALT,[2],37.6 IU/L
same,AST,[2],72.6 IU/L
same,BUN,[2],22 mg/dL
same,CRE,[2],0.2 mg/dL
same,Ca,[2],10.8 mg/dL
same,Cl,[2],106.4 meq/L
same,DBIL,[2],0 mg/dL
same,GLC,[2],203 mg/dL
same,IP,[2],6.9 mg/dL
same,K,[2],4.7 meq/L
same,LDH,[2],193.6 IU/L
same,Na,[2],142.2 meq/L
same,PL,[2],132.6 mg/dL
same,RALB,[2],3.1 g/dL
same,TBIL,[2],0.002 mg/dL
same,TC,[2],63.2 mg/dL
same,TG,[2],101.8 mg/dL
same,TP,[2],5.3 g/dL
same,gamma-GTP,[2],1.6 IU/L
same,ALP,[3],1570.4 IU/L
same,AST,[3],67.2 IU/L
same,BUN,[3],19.8 mg/dL
same,CRE,[3],0.2 mg/dL
same,Ca,[3],10.6 mg/dL
same,DBIL,[3],0 mg/dL
same,GLC,[3],197.6 mg/dL
same,IP,[3],7.4 mg/dL
same,K,[3],4.3 meq/L
same,LDH,[3],171.4 IU/L
same,Na,[3],143.6 meq/L
same,PL,[3],142.4 mg/dL
same,RALB,[3],3.1 g/dL
same,TBIL,[3],0.002 mg/dL
same,TC,[3],67 mg/dL
same,TP,[3],5.7 g/dL
same,gamma-GTP,[3],2.4 IU/L
same,ALP,[4],1140.2 IU/L
same,ALT,[4],40.6 IU/L
same,AST,[4],63.8 IU/L
same,BUN,[4],18.8 mg/dL
same,CRE,[4],0.2 mg/dL
same,Cl,[4],105.4 meq/L
same,DBIL,[4],0 mg/dL
same,GLC,[4],207.8 mg/dL
same,IP,[4],6.2 mg/dL
same,K,[4],4.1 meq/L
same,LDH,[4],138.8 IU/L
same,Na,[4],142.6 meq/L
same,RALB,[4],3.3 g/dL
same,TBIL,[4],0.004 mg/dL
same,TC,[4],69.8 mg/dL
same,TG,[4],178.4 mg/dL
same,TP,[4],6.1 g/dL
same,gamma-GTP,[4],2.2 IU/L
same,TERMINAL_BW,[5],226.3 g
same,APTT,[5],20.3 s
same,Bas,[5],0%
same,Eos,[5],1%
same,Fbg,[5],272.8 mg/dL
same,Ht,[5],39.2%
same,MCHC,[5],34%
same,MCV,[5],60.6 fL
same,Mono,[5],2.6%
same,Neu,[5],15.4%
same,PT,[5],16.8 s
same,RBC,[5],648.4 x10_4/ul
same,Ret,[5],5.3%
same,KIDNEY_L,[5],1 g
same,KIDNEY_R,[5],1 g
same,KIDNEY_TOTAL,[5],2 g
same,ALP,[5],1702 IU/L
same,ALT,[5],42.2 IU/L
same,AST,[5],67.4 IU/L
same,BUN,[5],17 mg/dL
same,CRE,[5],0.2 mg/dL
same,Ca,[5],10.6 mg/dL
same,Cl,[5],106.4 meq/L
same,DBIL,[5],0 mg/dL
same,GLC,[5],185.4 mg/dL
same,IP,[5],7.3 mg/dL
same,K,[5],4.1 meq/L
same,LDH,[5],188.6 IU/L
same,Na,[5],142.8 meq/L
same,RALB,[5],2.9 g/dL
same,TBIL,[5],0 mg/dL
same,TC,[5],73.6 mg/dL
same,TG,[5],137.8 mg/dL
same,TP,[5],5.2 g/dL
same,gamma-GTP,[5],1.4 IU/L
same,TERMINAL_BW,[6],265.9 g
same,TERMINAL_BW,[7],293.1 g
same,TERMINAL_BW,[8],367.2 g
same,APTT,[6],20.2 s
same,Bas,[6],0%
same,Eos,[6],0.8%
same,Fbg,[6],299.4 mg/dL
same,Ht,[6],37%
same,MCH,[6],21.7 pg
same,MCV,[6],61 fL
same,Mono,[6],2.4%
same,Neu,[6],13.4%
same,PT,[6],16.1 s
same,RBC,[6],606.4 x10_4/ul
same,Ret,[6],6.9%
same,APTT,[7],22.7 s
same,Bas,[7],0%
same,Eos,[7],0.8%
same,Fbg,[7],302.4 mg/dL
same,MCHC,[7],35.9%
same,MCV,[7],57.5 fL
same,Mono,[7],2.2%
same,Neu,[7],12.8%
same,RBC,[7],687.6 x10_4/ul
same,Ret,[7],4.3%
same,APTT,[8],23.2 s
same,Bas,[8],0%
same,Eos,[8],1%
same,Fbg,[8],311 mg/dL
same,Ht,[8],42.3%
same,MCH,[8],19.2 pg
same,MCHC,[8],34.3%
same,MCV,[8],56 fL
same,Mono,[8],1.6%
same,Neu,[8],12%
same,RBC,[8],755.4 x10_4/ul
same,Ret,[8],2.9%
same,KIDNEY_L,[6],1.2 g
same,KIDNEY_R,[6],1.3 g
same,KIDNEY_TOTAL,[6],2.5 g
same,KIDNEY_L,[7],1.2 g
same,KIDNEY_R,[7],1.2 g
same,KIDNEY_TOTAL,[7],2.4 g
same,KIDNEY_L,[8],1.4 g
same,KIDNEY_R,[8],1.5 g
same,KIDNEY_TOTAL,[8],2.9 g
same,ALP,[6],1603.6 IU/L
same,ALT,[6],40.6 IU/L
same,AST,[6],69 IU/L
same,BUN,[6],19.6 mg/dL
same,CRE,[6],0.1 mg/dL
same,Ca,[6],10.6 mg/dL
same,Cl,[6],107.4 meq/L
same,DBIL,[6],0 mg/dL
same,GLC,[6],192.2 mg/dL
same,IP,[6],7.2 mg/dL
same,K,[6],4.2 meq/L
same,LDH,[6],140.4 IU/L
same,Na,[6],143.8 meq/L
same,PL,[6],139.6 mg/dL
same,RALB,[6],3 g/dL
same,TBIL,[6],0.002 mg/dL
same,TC,[6],71.8 mg/dL
same,TG,[6],127 mg/dL
same,TP,[6],5.2 g/dL
same,gamma-GTP,[6],1.8 IU/L
same,ALP,[7],1453.4 IU/L
same,ALT,[7],41.2 IU/L
same,AST,[7],65 IU/L
same,BUN,[7],17 mg/dL
same,CRE,[7],0.2 mg/dL
same,Ca,[7],10.5 mg/dL
same,Cl,[7],105.8 meq/L
same,DBIL,[7],0 mg/dL
same,GLC,[7],185.2 mg/dL
same,IP,[7],6.7 mg/dL
same,K,[7],3.8 meq/L
same,LDH,[7],123.6 IU/L
same,Na,[7],144 meq/L
same,PL,[7],140.8 mg/dL
same,RALB,[7],3 g/dL
same,TBIL,[7],0.002 mg/dL
same,TC,[7],65.8 mg/dL
same,TG,[7],152.6 mg/dL
same,TP,[7],5.5 g/dL
same,gamma-GTP,[7],2 IU/L
same,ALP,[8],1253 IU/L
same,ALT,[8],41 IU/L
same,AST,[8],63 IU/L
same,BUN,[8],19 mg/dL
same,CRE,[8],0.2 mg/dL
same,Ca,[8],10.5 mg/dL
same,Cl,[8],106.8 meq/L
same,DBIL,[8],0 mg/dL
same,GLC,[8],184.2 mg/dL
same,IP,[8],6.2 mg/dL
same,K,[8],4 meq/L
same,LDH,[8],129 IU/L
same,Na,[8],143 meq/L
same,PL,[8],142.8 mg/dL
same,RALB,[8],3.1 g/dL
same,TBIL,[8],0.002 mg/dL
same,TC,[8],70.8 mg/dL
same,TG,[8],159.2 mg/dL
same,TP,[8],5.9 g/dL
same,gamma-GTP,[8],2.2 IU/L
same,TERMINAL_BW,"200 mg/kg, 72 h, dose level Middle, time 3 day",215.5 g
